From the CheMixHub viscosity set

Assay: xn = mol fraction of the nth substance listed

CNCCO + CCOCCO
viscosity [mPa·s], 101.3 kPa
Details | 293.15 K | 298.15 K | 303.15 K | 308.15 K | 313.15 K | 318.15 K | 323.15 K
x1 = 0.118 | 2.547 | 2.249 | 1.998 | 1.785 | 1.604 | 1.448 | 1.313
x1 = 0.34 | 3.887 | 3.356 | 2.92 | 2.56 | 2.26 | 2.006 | 1.791
x1 = 0.444 | 4.708 | 4.021 | 3.464 | 3.01 | 2.634 | 2.32 | 2.057
x1 = 0.545 | 5.72 | 4.828 | 4.116 | 3.541 | 3.071 | 2.684 | 2.362
x1 = 0.737 | 8.19 | 6.751 | 5.636 | 4.76 | 4.058 | 3.492 | 3.03
x1 = 0.915 | 11.49 | 9.252 | 7.565 | 6.267 | 5.255 | 4.453 | 3.812

CNC(C)=O + CC(C)O
303.15 K, 101 kPa
Details | viscosity [mPa·s]
x1 = 0.11 | 1.922
x1 = 0.2078 | 2.005
x1 = 0.3061 | 2.099
x1 = 0.3988 | 2.217
x1 = 0.4962 | 2.377
x1 = 0.5547 | 2.49
x1 = 0.6962 | 2.824
x1 = 0.8005 | 3.115
x1 = 0.8927 | 3.418

CNC(C)=O + CO
303.15 K, 101 kPa
Details | viscosity [mPa·s]
x1 = 0.0999 | 0.644
x1 = 0.2019 | 0.798
x1 = 0.3029 | 0.98
x1 = 0.3939 | 1.175
x1 = 0.504 | 1.457
x1 = 0.605 | 1.778
x1 = 0.6998 | 2.134
x1 = 0.7934 | 2.561
x1 = 0.8995 | 3.14
